Source: patent publication US12116636B2, “Methods for evaluating tumor cell spheroids using 3D microfluidic cell culture device” (Dana-Farber Cancer Institute, Inc., priority 2017, dated 2024)
Where two headings read alike, the source gives them in different places.

Columns and labels:
Experiment in all cases: SelectScreen Kinase Profiling, biochemical single point inhibition
[1] = tested on: off-target kinases; conditions: 1000 μM
Experimental: (§1) Biochemical single point inhibition and IC50 concentrations for TBK1, IKKε (IKBKE), and off-target kinases were determined at ThermoFisher Scientific using SelectScreen Kinase Profiling Services (Madison, WI, USA) (Tables S4A and S4B-1-7). To determine cellular potency, the human colorectal cancer carcinoma cell line HCT116 (ATCC, Manassas, VA) was maintained in T175 flasks in complete RPMI medium; RPMI 1640 supplemented with 10% FBS, 1× Penicillin-Streptomycin solution and 1× MEM (non-essential amino acids). HCT116 cells were grown to 90-95% confluency in T175 flasks containing complete RPMI medium and transfected in bulk using Lipofectamine 2000 (Invitrogen, Carlsbad, CA) with 70 μg of ISG54-luciferase reporter plasmid (Elim Biopharmaceuticals Inc., Hayward, CA). The reporter plasmid contains a luciferase gene expression cassette under the transcriptional regulation of the promoter of the human interferon stimulated gene 54 (ISG54). Transfection of the cells was allowed to take place for 6 hours, after which the cells were harvested by treatment with 0.25% trypsin EDTA (Corning Inc., Corning, NY). Trypsinized cells were added to 384-well poly-d-lysine treated black clear bottom tissue culture assay plates (Greiner Bio-One GmbH, Kremsmunster, Austria) at a density of 20,000 cells/well in 80 μL of complete RPMI medium and incubated overnight. After 16-18 hours post-transfection, the assay plates were washed with PBS (Corning Inc., Corning, NY), followed by addition of 80 μL/well of serum-free RPMI 1640 medium containing 1× Penicillin-Streptomycin solution, 1× MEM and 350 nL of DMSO or titrations of Compound 1. Compound 1 titrations were generated by 1.5-fold dilution steps in two overlapping serial dilution series to generate a 40-point compound dose range. After incubation at 37° C. for 1 hour, the cells were stimulated with Poly(I:C) (InvivoGen, San Diego, CA) at a final concentration of 15 μg/mL in Optimem media (Life Technologies, Rockville, MD). The assay plates were incubated for 5 hours at 37° C., followed by addition of One-Glo luciferase firefly reagent (Promega, Madison, WI) at 1:1 volume/well and luminescence was measured in an EnVision Multilabel Plate Reader (PerkinElmer, Santa Clara, CA). The EC50 values were calculated from the fit of the dose-response curves to a four-parameter equation. All EC50 values represent geometric mean values of a minimum of four determinations.

[2] = molecular target: off-target kinases (Homo sapiens, UniProt Q16644); conditions: MAPKAPK3, ATP Km app, ZLYTE
Chain of off-target kinases (Homo sapiens, UniProt Q16644) (Q16644 whole entry): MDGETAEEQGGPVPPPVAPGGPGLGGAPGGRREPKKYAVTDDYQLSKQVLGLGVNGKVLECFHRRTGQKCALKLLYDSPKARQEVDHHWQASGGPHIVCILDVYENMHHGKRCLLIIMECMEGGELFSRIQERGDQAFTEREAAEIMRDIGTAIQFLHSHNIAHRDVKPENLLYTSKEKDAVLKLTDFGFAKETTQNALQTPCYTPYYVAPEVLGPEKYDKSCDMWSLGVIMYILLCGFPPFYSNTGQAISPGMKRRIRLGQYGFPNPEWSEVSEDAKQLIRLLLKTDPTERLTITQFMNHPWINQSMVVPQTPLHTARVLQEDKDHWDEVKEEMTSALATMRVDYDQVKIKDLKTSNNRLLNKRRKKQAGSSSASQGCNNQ
Experimental: as §1

[3] = molecular target: T1, off-target kinases (Homo sapiens, UniProt Q02156); conditions: ATP Km, ZLYTE
T1 sequence (Q02156 1-737): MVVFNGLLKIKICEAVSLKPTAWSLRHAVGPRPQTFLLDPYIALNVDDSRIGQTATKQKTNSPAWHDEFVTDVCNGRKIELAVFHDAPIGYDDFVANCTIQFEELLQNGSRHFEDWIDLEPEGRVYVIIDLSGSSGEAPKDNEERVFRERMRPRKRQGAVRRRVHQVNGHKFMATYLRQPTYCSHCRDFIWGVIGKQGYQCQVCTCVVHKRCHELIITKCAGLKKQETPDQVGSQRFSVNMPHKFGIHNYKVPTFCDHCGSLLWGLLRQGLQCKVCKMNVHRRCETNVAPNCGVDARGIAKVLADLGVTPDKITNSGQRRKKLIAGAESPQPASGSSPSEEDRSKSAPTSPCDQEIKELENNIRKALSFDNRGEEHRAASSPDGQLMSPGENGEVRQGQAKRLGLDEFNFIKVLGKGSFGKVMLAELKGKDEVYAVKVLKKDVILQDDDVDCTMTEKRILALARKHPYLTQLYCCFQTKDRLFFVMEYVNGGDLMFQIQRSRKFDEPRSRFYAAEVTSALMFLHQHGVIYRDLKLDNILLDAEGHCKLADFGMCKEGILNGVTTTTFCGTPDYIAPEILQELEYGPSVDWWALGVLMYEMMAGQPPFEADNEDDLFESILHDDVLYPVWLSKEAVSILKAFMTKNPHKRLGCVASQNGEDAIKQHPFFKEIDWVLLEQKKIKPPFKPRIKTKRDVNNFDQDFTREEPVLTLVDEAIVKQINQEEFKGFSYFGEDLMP
Experimental: as §1

[4] = EGFR (ErbB1) d746-750 (mutant), LanthaScreen Binding
[5] = PRKCB2 (PKC beta II), ATP Km app, ZLYTE
[6] = TEK (TIE2) mutant (mutation name not given), LanthaScreen

**Q.** Which “% Inhibition 1” value [1, 4] does the source give for `N#Cc1cc(-c2ncnc(Nc3ccc(N4CCN(C5COC5)CC4)cc3)n2)ccc1OC1CCOCC1` [Compound 1, 5-(4-((4-(4-(oxetan-3-yl)piperazin-1-yl)phenyl)amino)-1,3,5-triazin-2-yl)-2-((tetrahydro-2H-pyran-4-yl)oxy)benzonitrile] here?
**A.** 14%

**Q.** What about the “% Inhibition 2” value [1, 4] of the same compound?
**A.** 13%

**Q.** What about the “% Inhibition Avg” value [1, 4] of the same compound?
**A.** 14%

**Q.** What about the “% Inhibition 1” value ([1]; FLT3 ITD, LanthaScreen Binding) of the same compound?
**A.** 64%

**Q.** What about the “% Inhibition 2” value ([1]; FLT3 ITD, LanthaScreen Binding) of the same compound?
**A.** 62%

**Q.** And the “% Inhibition Avg” value ([1]; FLT3 ITD, LanthaScreen Binding)?
**A.** 63%

**Q.** And the “% Inhibition 1” value ([1]; FYN A, LanthaScreen Binding)?
**A.** 16%

**Q.** And the “% Inhibition Avg” value ([1]; FYN A, LanthaScreen Binding)?
**A.** 18%

**Q.** What about the “% Inhibition 1” value ([1]; LYN B, ATP Km app, ZLYTE) of the same compound?
**A.** 56%

**Q.** And the “% Inhibition 2” value ([1]; LYN B, ATP Km app, ZLYTE)?
**A.** 50%

**Q.** What about the “% Inhibition Avg” value ([1]; LYN B, ATP Km app, ZLYTE) of the same compound?
**A.** 53%

**Q.** And the “% Inhibition 2” value ([1]; MAP3K7/MAP3K7IP1 (TAK1-TAB1), LanthaScreen Binding)?
**A.** 22%

**Q.** And the “% Inhibition 1” value [1, 5]?
**A.** 12%

**Q.** And the “% Inhibition 2” value [1, 5]?
**A.** 8%

**Q.** And the “% Inhibition Avg” value [1, 5]?
**A.** 10%

**Q.** What about the “% Inhibition 1” value ([1]; SRC N1, ATP Km app, ZLYTE) of the same compound?
**A.** 54%

**Q.** And the “% Inhibition 2” value ([1]; SRC N1, ATP Km app, ZLYTE)?
**A.** 60%

**Q.** And the “% Inhibition Avg” value ([1]; SRC N1, ATP Km app, ZLYTE)?
**A.** 57%

**Q.** And the “% Inhibition 1” value [1, 6]?
**A.** 40%

**Q.** And the “% Inhibition 2” value [1, 6]?
**A.** 41%

**Q.** What about the “% Inhibition Avg” value [1, 6] of the same compound?
**A.** 41%

**Q.** What about the inhibition ([2]; read-out: % Inhibition 1) of the same compound?
**A.** 1%

**Q.** What about the inhibition ([2]; read-out: % Inhibition 2) of the same compound?
**A.** -8%

**Q.** And the inhibition ([2]; read-out: % Inhibition Avg)?
**A.** -3%

**Q.** And the inhibition ([3]; PRKCE (PKC), read-out: % Inhibition 1)?
**A.** 1%

**Q.** And the inhibition ([3]; PRKCE (PKC), read-out: % Inhibition Avg)?
**A.** -3%

**Q.** What about the inhibition ([3]; PRKCE PKC, read-out: % Inhibition 2) of the same compound?
**A.** -6%
